{"source": "patent US12458630B2", "about": "“Combination therapy for cancer” (The Regents of the University of California, priority 2020, dated 2025)", "key": {"[1]": {"test_system": "1444 primary human PDAC cells", "test": "TMR-DEX macropinosome uptake assay", "assay_type": "cell-based", "conditions": "IKKα^Δ 1444 cells, 75 μM EIPA", "method": "(§1) Cell imaging. Immunostaining was performed as described^44. Cells were cultured on coverslips and fixed in 4% PFA for 10 min at room temperature. After washing twice in PBS, cells were incubated in PBS containing 10% FBS to block nonspecific sites of antibody adsorption. The cells were then incubated with the appropriate primary antibodies (diluted 1:100) and secondary antibodies (diluted 1:500) in PBS containing 10% FBS with or without 0.1% saponin. For cell macropinosome visualization, 24 hrs after seeding, the cells were serum starved for 18 hrs. Macropinosomes were marked using a high-molecular-mass (70 KD) TMR-Dextran (Invitrogen)-uptake assay, wherein TMR-DEX was added to serum-free medium at a final concentration of 1 mg/ml for 30 min at 37° C. At the end of the incubation period, the cells were rinsed five times in cold PBS and immediately fixed in 4% PFA. For tissue macropinosome visualization^45, fresh pancreata were cut into pieces with an approximate 5-mm cuboidal shape. […]\n(§2) Quantification and statistics. To quantify the number of LC3 puncta, a total of 30 cells were recorded and analyzed using the LAS X measurement program on the TCS SPE Leica. Macropinosomes were quantified by using the ‘Analyze Particles’ feature in ImageJ (National Institutes of Health). […]"}, "[2]": {"test_system": "1305 primary human PDAC cells", "test": "Cell viability assay (CCK-8)", "assay_type": "cell-based", "conditions": "IKKα^low 1305 cells, 3 days", "method": "(§3) In some embodiments, cells were plated in 96-well plates coated with or without ECM at a density of 3000 cells (MIA PaCa-2, 1444, 1305, COLO 357/FG) or 1500 cells (KC6141) per well and incubated overnight prior to treatment. EIPA (10.5 μM), IPI549 (600 nM), MBQ-167 (500 nM), MRT68921 (600 nM) or erlotinib (2 μM, Sigma), ML385 (10 μM, Sigma), HCQ (10 μM or 80 μM) or their combinations were added to the wells for 24, 72 or 96 hrs. Next, 10 μL of CCK-8 was added to each well. The optical density was read at 450 nm using a microplate reader (FilterMax F5, Molecular Devices, USA) at day 0, 1, 2, 3, and 4. For glutamine-deprivation assays, cells in 96-well plates were rinsed briefly in PBS and incubated in the 0.2 mM glutamine. Glutamine-free DMEM medium was supplemented with 0.2 mM glutamine in the presence of 10% dialyzed FBS and 25 mM HEPES. For glucose-deprivation assays, cells in 96-well plates were rinsed briefly in PBS and incubated in the 0.5 mM glucose. Glucose-free DMEM medium was supplemented with 0.5 mM glucose in the presence of 10% dialyzed FBS and 25 mM HEPES. For some conditions, the medium was supplemented with a final concentration of 2% BSA (Fraction V, fatty-acid-, nuclease and protease-free, Calbiochem). For all experiments, media were replaced every 24 hrs. Viable cell counts were obtained using CCK-8 assay described as above."}, "[3]": {"test_system": "1444 primary human PDAC cells", "test": "Cell viability assay (CCK-8)", "assay_type": "cell-based", "method": "as §3"}, "KC6141 cells": {"test_system": "KC6141 cells", "test": "TMR-DEX macropinosome uptake assay", "assay_type": "cell-based, mouse", "conditions": "WT and IKKα-KD KC6141 cells", "method": "as §1, §2"}, "MIA PaCa-2 cells": {"test_system": "MIA PaCa-2 cells", "test": "LC3 puncta / LC3-LAMP1 immunofluorescence", "assay_type": "cell-based, human", "conditions": "MIA PaCa-2 cells +/- MRT68921", "method": "as §1, §2"}}, "note": "Entries after “also recorded” stand apart in the source; their conditions may differ."}
{"smiles": "CCN(c1nc(N)c(C(=O)N=C(N)N)nc1Cl)C(C)C", "note": "[EIPA, 5-(N-ethyl-N-isopropyl) amiloride]", "values": [{"measurement": "macropinocytosis (TMR-DEX labeling)", "setting": "[1]", "result": "inhibited; also recorded: suppressed"}, {"measurement": "sensitivity to single agent (cell viability)", "setting": "[2]", "result": "very sensitive"}, {"measurement": "sensitivity of IKKα^Δ and ATG7^Δ cells to EIPA (CCK-8)", "setting": "[3]; IKKα^Δ / ATG7^Δ 1444 cells (functional TP53)", "result": "highly sensitive"}, {"measurement": "cell viability (total viable cells relative to day 0)", "setting": "[3]; WT, IKKα^Δ and ATG7^Δ 1444 cells, complete medium, EIPA 10.5 μM, days 0-4", "result": "suppression of cell viability"}, {"measurement": "MP (macropinosomes)", "setting": "KC6141 cells", "result": "inhibited MP"}]}
{"smiles": "CN1CCc2cc(Nc3ncc(C4CC4)c(NCCCNC(=O)C4CCC4)n3)ccc2C1", "note": "[MRT68921]", "values": [{"measurement": "autophagosome (LC3) puncta per cell", "setting": "MIA PaCa-2 cells", "result": "less autophagosomes; also recorded: reduced autophagosomes; also recorded: significantly abolished"}]}
